Reference: US8507472B2 (priority 2010, dated 2013)

Columns and labels:
[1] = test system: Alternaria solani; assay: Alternaria test (tomato)/protective; type: in vivo; conditions: in vivo
Experimental: (§1) Solvent: 49 parts by weight of N,N-dimethylformamide
(§2) Emulsifier: 1 part by weight of alkylaryl polyglycol ether
To produce a suitable preparation of active compound, 1 part by weight of active compound is mixed with the stated amounts of solvent and emulsifier, and the concentrate is diluted with water to the desired concentration.
To test for protective activity, young tomato plants are sprayed with the active compound preparation at the stated application rate. 1 day after the treatment, the plants are inoculated with a spore suspension of Alternaria solani and then remain at 100% rel. humidity and 22° C. for 24 h. The plants then remain at 96% rel. atmospheric humidity and a temperature of 20° C.
(§3) Evaluation is carried out 7 days after the inoculation. 0% means an efficacy which corresponds to that of the control, whereas an efficacy of 100% means that no infection is observed.

[2] = test system: Leptosphaeria nodorum; assay: Leptosphaeria nodorum test (wheat)/protective; type: in vivo; conditions: in vivo
Experimental: as §1, §2
(§4) To produce a suitable preparation of active compounds, 1 part by weight of active compound is mixed with the stated amounts of solvent and emulsifier, and the concentrate is diluted with water to the desired concentration.
(§5) To test for protective activity, young wheat plants are sprayed with the active compound preparation at the stated application rate. 1 day after the treatment, the plants are inoculated with an aqueous spore suspension of Leptosphaeria nodorum and then remain at 100% rel. atmospheric humidity and 22° C. for 48 h. The plants are then placed in a greenhouse at 90% rel. atmospheric humidity and a temperature of 22° C.
(§6) Evaluation is carried out 7-9 days after the inoculation. 0% means an efficacy which corresponds to that of the control, whereas an efficacy of 100% means that no infection is observed.

[3] = test system: Pyrenophora teres; assay: Pyrenophora teres test (barley)/protective; type: in vivo
Experimental: as §1, §2, §4
as §5, with “young barley” for “young wheat”, “of Pyrenophora teres” for “of Leptosphaeria nodorum”, “at 80%” for “at 90%”, “of 20°” for “of 22°”
as §6

[4] = test system: DON/AcDON production; assay: microbe, parasite or virus in culture; type: cell-based, Fusarium graminearum; conditions: 7 days at 28° C.
[5] = test system: Fusarium graminearum; assay: microbe, parasite or virus in culture; type: cell-based
[6] = log P determination by HPLC retention times (alkan-2-one calibration)
[7] = test system: Phytophthora infestans; type: in vivo; conditions: in vivo
[8] = test system: Sphaerotheca fuliginea; assay: Sphaerotheca test (cucumber)/protective; type: in vivo; conditions: in vivo
Experimental: as §1, §2, §4
To test for protective activity, young cucumber plants are sprayed with the active compound preparation at the stated application rate. 1 day after the treatment, the plants are inoculated with a spore suspension of Sphaerotheca fuliginea. The plants are then placed in a greenhouse at 70% rel. atmospheric humidity and a temperature of 23° C.
as §3

| Compound | efficacy in % [1] [%] | efficacy in % [2] [%] | efficacy in % ([3]; in vivo) [%] | efficacy in % [7] [%] | efficacy in % [8] [%] | other results |
| --- | --- | --- | --- | --- | --- | --- |
| Cc1cc(-c2c(-c3ccc(F)cc3)nn3c2CCCC3)ccn1 [Example 6] | 95 | 70 | 70 |  |  | % inhibition of DON/AcDON at 50 μM [4]: 99%; % inhibition of the fungal growth of Fusarium graminearum at 50 μM [5]: 70%; log P ([6]; values marked [a] in Table 1): 1.22^[a];; log P ([6]; values marked [b] in Table 1): 2.67^[b] |
| Fc1cc(-c2c(-c3ccc(Cl)cc3)nn3c2CCC3)ccn1 [Example 13] |  |  | 80 |  |  | % inhibition of DON/AcDON at 50 μM [4]: 96%; % inhibition of the fungal growth of Fusarium graminearum at 50 μM [5]: 17% |
| Nc1cc(-c2c(-c3ccccc3)nn3c2CCCC3)ccn1 [Example 14] |  |  |  | 70 |  | % inhibition of DON/AcDON at 50 μM [4]: 93%; % inhibition of the fungal growth of Fusarium graminearum at 50 μM [5]: 24% |
| CC(C)(C)OC(=O)Nc1cc(-c2c(-c3ccc(F)cc3)nn3c2CCCC3)ccn1 [Example 16] |  |  |  |  |  | % inhibition of DON/AcDON at 50 μM [4]: 93%; % inhibition of the fungal growth of Fusarium graminearum at 50 μM [5]: 0% |
| FC(F)(F)c1ccc(-c2nn3c(c2-c2ccncc2)CCC3)cc1 [Example 17] |  |  |  | 80 |  |  |
| CN(C)C=Nc1cc(-c2c(-c3ccc(F)cc3)nn3c2CCCC3)ccn1 [Example 39] | 80 |  | 95 | 80 |  |  |
| Cc1ccc(-c2nn3c(c2-c2ccncc2)CCC3)cc1 [Example 41] | 70 |  | 95 | 70 |  | % inhibition of DON/AcDON at 50 μM [4]: 98%; % inhibition of the fungal growth of Fusarium graminearum at 50 μM [5]: 100% |
| FC(F)(F)c1cccc(-c2nn3c(c2-c2ccncc2)CCC3)c1 [Example 42] |  |  |  |  |  | % inhibition of DON/AcDON at 50 μM [4]: 98%; % inhibition of the fungal growth of Fusarium graminearum at 50 μM [5]: 100% |
| Fc1cccc(-c2nn3c(c2-c2ccncc2)CCC3)c1 [Example 44] | 80 |  | 90 | 70 |  | % inhibition of DON/AcDON at 50 μM [4]: 100%; % inhibition of the fungal growth of Fusarium graminearum at 50 μM [5]: 61% |
| CC(C)Nc1cc(-c2c(-c3ccc(Cl)cc3)nn3c2CCC3)ccn1 [Example 48] |  |  |  | 70 |  |  |
| Fc1cccc(-c2nn3c(c2-c2ccnc(F)c2)CCC3)c1 [Example 54] | 80 |  |  |  |  | % inhibition of DON/AcDON at 50 μM [4]: 100%; % inhibition of the fungal growth of Fusarium graminearum at 50 μM [5]: 0% |
| CC(C)Nc1cc(-c2c(-c3cccc(F)c3)nn3c2CCC3)ccn1 [Example 56] |  |  |  | 80 |  | % inhibition of DON/AcDON at 50 μM [4]: 92%; % inhibition of the fungal growth of Fusarium graminearum at 50 μM [5]: 27% |
| COCC(=O)Nc1cc(-c2c(-c3ccsc3)nn3c2CCCC3)ccn1 [Example 60] |  | 78 | 90 |  | 90 | % inhibition of DON/AcDON at 50 μM [4]: 100%; % inhibition of the fungal growth of Fusarium graminearum at 50 μM [5]: 100% |
| Fc1cc(-c2c(-c3ccccc3)nn3c2CCC3)ccn1 [Example 61, 3-(2-Fluoropyridin-4-yl)-2-phenyl-5,6-dihydro-4H-pyrrolo[1,2-b]pyrazole] |  |  |  |  |  | efficacy in % ([3]; 500 ppm active compound, barley, protective, evaluation 7-9 days after inoculation): 70%; inhibition at 50 µM ([4]; Fusarium graminearum, 168 h): 100%; inhibition at 50 µM ([5]; Fusarium graminearum, 72 h, read-out: % inhibition of the fungal growth of Fusarium graminearum at 50 μM): 0%; chromatographic logP ([6]; log P(HCOOH), HCOOH, preparation examples in the text): 2.53; chromatographic logP ([6]; log P, values marked [b] in Table 1): 2.53 |
| Nc1cc(-c2c(-c3ccc(F)cc3)nn3c2CCC3)ccn1 [Example 69] |  |  |  | 70 |  |  |
| CC(C)CNc1cc(-c2c(-c3ccc(F)cc3)nn3c2CCC3)ccn1 [Example 71] |  |  | 80 | 80 |  |  |
| CCC(=O)Nc1cc(-c2c(-c3cccs3)nn3c2CCCC3)ccn1 [Example 75] | 95 |  | 100 | 80 | 95 |  |
| COCC(=O)Nc1cc(-c2c(-c3ccc(F)cc3)nn3c2CCOC3(C)C)ccn1 [Example 82] | 89 | 88 | 94 | 70 | 95 |  |
| CC(C)C(=O)Nc1cc(-c2c(-c3ccc(F)cc3)nn3c2CCOC3(C)C)ccn1 [Example 83] | 89 | 75 | 94 | 70 | 98 |  |

| Compound | efficacy in % [1] [%] | efficacy in % [2] [%] | efficacy in % ([3]; in vivo) [%] | efficacy in % [7] [%] | efficacy in % [8] [%] | other results |
| --- | --- | --- | --- | --- | --- | --- |
| CC1(C)OCCc2c(-c3ccnc(NC(=O)C4CC4)c3)c(-c3ccc(F)cc3)nn21 [Example 84] |  | 88 | 94 |  | 98 |  |
| CC(C)C(=O)Nc1cc(-c2c(-c3cccs3)nn3c2CCCC3)ccn1 [Example 88] | 90 |  | 90 | 80 | 95 |  |
| CC(=O)Nc1cc(-c2c(-c3ccc(F)cc3)nn3c2CCOC3(C)C)ccn1 [Example 90] | 95 | 89 | 95 | 78 | 95 |  |
| CC(C)C(=O)Nc1cc(-c2c(-c3ccc(F)cc3)nn3c2COCC3)ccn1 [Example 92] | 90 | 90 | 95 | 80 | 98 |  |
| O=C(Nc1cc(-c2c(-c3ccc(F)cc3)nn3c2COCC3)ccn1)C1CC1 [Example 93] | 95 | 80 | 100 | 90 | 98 |  |
| CCC(=O)Nc1cc(-c2c(-c3ccc(F)cc3)nn3c2CCOC3)ccn1 [Example 95] | 80 | 90 | 100 |  | 95 |  |
| CCC(=O)Nc1cc(-c2c(-c3ccc(F)cc3)nn3c2CCCCC3)ccn1 [Example 96] | 90 | 90 | 100 | 70 | 95 |  |
| CC(C)C(=O)Nc1cc(-c2c(-c3ccc(F)cc3)nn3c2CCCCC3)ccn1 [Example 97] | 70 | 80 | 100 |  | 100 |  |
| CC(=O)Nc1cc(-c2c(-c3ccc(F)cc3)nn3c2CCCCC3)ccn1 [Example 99] | 80 | 95 | 95 |  | 98 |  |
| CCC(=O)Nc1cc(-c2c(-c3ccccc3)nn3c2COCC3)ccn1 [Example 100] | 80 | 70 | 100 |  | 95 |  |
| CC1CC1C(=O)Nc1cc(-c2c(-c3ccc(F)cc3)nn3c2CCOC3(C)C)ccn1 (stereo not drawn) [Example 101] | 90 | 70 | 95 |  | 98 |  |
| CC1(C)OCCc2c(-c3ccnc(NC(=O)C4CCC4)c3)c(-c3ccc(F)cc3)nn21 [Example 102] | 95 | 90 | 95 |  | 100 |  |
| CCC(=O)Nc1cc(-c2c(-c3ccc(F)cc3)nn3c2COCC3)ccn1 [Example 104] | 80 |  | 95 |  | 93 |  |
| CC(=O)Nc1cc(-c2c(-c3ccc(F)cc3)nn3c2CCOC3)ccn1 [Example 106] | 80 |  | 95 |  | 75 |  |
| O=C(Nc1cc(-c2c(-c3ccc(F)cc3)nn3c2CCOC3)ccn1)C1CC1 [Example 107] |  | 90 | 95 |  | 100 |  |
| CC1CC1C(=O)Nc1cc(-c2c(-c3ccc(F)cc3)nn3c2CCOC3)ccn1 (stereo not drawn) [Example 108] | 80 | 70 | 95 |  | 95 |  |
| O=C(Nc1cc(-c2c(-c3ccc(F)cc3)nn3c2CCOC3)ccn1)C1CCC1 [Example 109] | 90 |  | 95 |  | 93 |  |
| CC(C)CC(=O)Nc1cc(-c2c(-c3ccc(F)cc3)nn3c2CCOC3)ccn1 [Example 112] | 90 | 90 | 95 |  | 95 |  |
| O=C(CC1CC1)Nc1cc(-c2c(-c3ccc(F)cc3)nn3c2COCC3)ccn1 [Example 113] | 90 | 78 | 94 | 70 | 98 |  |
